These results are taken from patent US20030232862A1 (priority 2002, published 2003).

Data set [1] addresses cGMP PDE purified from human colon HT-29 cultured tumor cells (Homo sapiens, UniProt O76074). In words: cGMP PDE inhibition assay. The class given is biochemical.
The test system of the next data set is HT-29 cells. In words: Growth inhibition of HT-29 cells (SRB assay; trypan blue counting in time course). The data set is classed as cell-based, human. The note with it: Table 9 qualitative profile. A general note: The SRB assay estimates cell density from bound dye.
Data set [2] has as its system premalignant lesions in mouse mammary gland organ culture. In words: Mammary gland organ culture model. For mammary gland organ culture: key: −: Not active; +: Slightly active; + +: Moderately active; + + +: Strongly active; + + + +: Highly active. The data set is classed as cell-based. The source says: Test compounds identified by the above methods can be tested for antineoplastic activity by their ability to inhibit the incidence of pre-neoplastic lesions in a mammary gland organ culture system. This mouse mammary gland organ culture technique has been successfully used by other investigators to study the effects of known antineoplastic agents such as certain NSAIDs, retinoids, tamoxifen, selenium, and certain natural products, and is useful for validation of the screening method of the present invention.
For example, female BALB/c mice can be treated with a combination of estradiol and progesterone daily, in order to prime the glands to be responsive to hormones in vitro. The animals are sacrificed, and thoracic mammary glands are excised aseptically and incubated for ten days in growth media supplemented with insulin, prolactin, hydrocortisone, and aldosterone. DMBA (7,12-dimethylbenz(a)anthracene) is added to medium to induce the formation of premalignant lesions. Fully developed glands are then deprived of prolactin, hydrocortisone, and aldosterone, resulting in the regression of the glands but not the pre-malignant lesions.
The test compound is dissolved in DMSO and added to the culture media for the duration of the culture period. At the end of the culture period, the glands are fixed in 10% formalin, stained with alum carmine, and mounted on glass slides. The incidence of forming mammary lesions is the ratio of the glands with mammary lesions to […]. The incidence of mammary lesions in test compound treated glands is compared with that of the untreated glands.
The extent of the area occupied by the mammary lesions can be quantitated by projecting an image of the gland onto a digitation pad. The area covered by the gland is traced on the pad and considered as 100% of the area. The space covered by each of the non-regressed structures is also outlined on the digitization pad and quantitated by the computer.
Mammary gland organ culture experiment were performed as previously described (Mehta and Moon, Cancer Research, 46: 5832-5835, 1986).

The test system of data set [3] is PKG activity in SW480 colon cancer cells. The data set is described as follows: PKG activity assay in drug-treated SW480 cells. The class given is cell-based, human. The note with it: SW480, 48 hrs, with and without added cGMP; exisulind 200-600 μM, E4021 0.1-10 μM. The source says: The novel PKG assay of this invention involves binding to solid phase plural amino acid sequences, each of which contain at least the cGMP-binding (cGB) domain and the phosphorylation site of phosphodiesterase type 5 (“PDE5”). That sequence is known and described in the literature below. […] One way to bind the PDE5 sequences to a solid phase is to express those sequences as a fusion protein of the PDE5 sequence and one member of an amino acid binding pair, and chemically link the other member of that amino acid binding pair to a solid phase (e.g., beads). One binding pair that can be used is glutathione S-transferase (“GST”) and glutathione (“GSH”), with the GST being expressed as a fusion protein with the PDE5 sequence described above, and the GSH bound covalently to the solid phase. In this fashion, the PDE5 sequence/GST fusion protein can be bound to a solid phase simply by passing a solution containing the fusion protein over the solid phase, as described below.
To assay a liquid sample believed to contain PKG using the PDE5-bound solid phase described above, the sample and the solid phase are mixed with phosphorylation buffer containing ^32P-γ-ATP. […]
For each control or drug cell lysate sample to be evaluated, the reaction is started by adding phosphorylation buffer containing 10 μCi ^32P-γ-ATP solution (200 μM ATP, 4.5 mM MgCl; 5 mM KH2PO4; 5 mM K2HPO4;) to each mixture. […]

Data set [4] concerns PKG activity in HCT116 colon cancer cells. In words: PKG activity assay in drug-treated HCT116 cells. The class given is cell-based. The source says:
To test the effect of cGMP-specific PDE inhibition on neoplasia containing the β-catenin mutation, HCT116 colon cancer cells were employed. HCT116 is known to contain the β-catenin mutation, but is known not to contain the APC mutation.
The same procedure is used to grow the HCT116 cells as is used in the SW480 procedure described above. In this experiment, only exisulind and controls were used.

Data set [5] in a line: Clinical tolerability of exisulind. The data set is classed as in vivo. The source says: This effect is reversible, and liver enzymes return to normal levels when the administered dose of exisulind returns to the traditionally recommended level or when treatment is discontinued. The purpose of using combinations is to allow a lower dose of each to be used.

One may read the inhibition as the relative decrease from the control value, in per cent. For orientation: IC50 means the concentration that gives 50% inhibition.

Turning to `CC1=C(CC(=O)O)c2cc(F)ccc2/C1=C\c1ccc(S(C)(=O)=O)cc1` [Exisulind, 5-fluoro-2-methyl-1-(p-methylsulfonylbenzylidene)-3-indenylacetic acid], the “PDE Inhibition” value in data set [1] (Table 9 qualitative profile) is “+ +”. Moreover, the inhibition at 10 µM in data set [1] (read-out: % Inhibition at 10 μM (cGMP PDE), 10 μM) was 39%. The IC50 in data set [1] (read-out: IC50 for inhibition of cGMP PDE) was 56 µM. Besides, the “Growth Inhibition” value with HT-29 cells is listed as “+ +”. In data set [2] (FIG. 17), the “inhibition of formation of premalignant lesions” value was “effectively inhibit”. Also, the “Mammary Gland Organ Culture” value in data set [2] (Table 9 qualitative profile) was “+ + +”. In addition, the “PKG activity relative to control” value in data set [3] was “increase in a dose-dependent manner”. Moreover, the “PKG activation relative to control” value in data set [4] is recorded as “PKG activation occurred”. For the same compound, the “side effects at recommended dose” value in data set [5] (300-400 mg/day) was “no clinically significant side effects”. In addition, the “effect at doses higher than the recommended therapeutic levels” value in data set [5] (reversible) was “elevated levels of liver enzymes”.
